≈ marks a conversion by molar mass, not a printed value. Counter-ions that a name gives are not always drawn. Like-named read-outs stand apart in the source and are kept apart here.
Key:
Type in all cases: cell-based
E. cloacae ATCC13047 = assay: MIC, E. cloacae ATCC13047; settings: Enterobacter cloacae
Protocol: (§1) The minimum inhibition concentrations (MIC) of the compounds obtained by the present invention were measured according to the standard method of Japanese Chemotherapy Association.

E. coli ATCC25922 = assay: MIC, E. coli ATCC25922; settings: Escherichia coli, read-out: MIC
Protocol: as §1

P. maltophilia ATCC13637 = assay: MIC, P. maltophilia ATCC13637; settings: Stenotrophomonas maltophilia
Protocol: as §1

S. newport 563 = assay: MIC, S. newport 563; settings: Salmonella enterica, read-out: MIC
Protocol: as §1

S. boyadii CDC 2064-59 = assay: MIC, S. boyadii CDC 2064-59
Protocol: as §1

P. putida ATCC12633 = assay: MIC, P. putida ATCC12633; settings: Pseudomonas putida
Protocol: as §1

S. dysenteriae 4379-60 = assay: MIC, S. dysenteriae 4379-60; settings: Shigella dysenteriae, 437960
Protocol: as §1

K. pneumoniae ATCC27736 = assay: MIC, K. pneumoniae ATCC27736; settings: Klebsiella pneumoniae, read-out: MIC
Protocol: as §1

P. vulgaris ATCC6398 = assay: MIC, P. vulgaris ATCC6398; settings: Proteus vulgaris, read-out: MIC
Protocol: as §1

S. aureus ATCC25923 = assay: MIC, S. aureus ATCC25923; settings: Staphylococcus aureus; S. aureus ATCC25923; read-out: MIC
Protocol: as §1

S. typhi 1099-77 = assay: MIC, S. typhi 1099-77; settings: Salmonella enterica
Protocol: as §1

S. paratyphi A 144-12-93 = assay: MIC, S. paratyphi A 144-12-93; settings: Salmonella enterica, PARATYPHI
Protocol: as §1

S. paratyphi C 33-76 = assay: MIC, S. paratyphi C 33-76; settings: Salmonella enterica, PARATYPHI
Protocol: as §1

S. epidermidis ATCC14990 = assay: MIC, S. epidermidis ATCC14990; settings: Staphylococcus epidermidis, read-out: MIC
Protocol: as §1

S. faecalis IFO3826 = assay: MIC, S. faecalis IFO3826; settings: Enterococcus faecalis, read-out: MIC
Protocol: as §1

S. aureus 209P JC-1 = assay: MIC, S. aureus 209P JC-1; settings: Staphylococcus aureus; S. aureus 209P JC-1; read-out: MIC
Protocol: as §1

E. coli NIHJ JC-2 = assay: MIC, E. coli NIHJ JC-2; settings: Escherichia coli, NIHJJC2, read-out: MIC
Protocol: as §1

S. typhimurium ATCC13311 = assay: MIC, S. typhimurium ATCC13311; settings: Salmonella enterica, read-out: MIC
Protocol: as §1

P. rettgeri ATCC14505 = assay: MIC, P. rettgeri ATCC14505; settings: Providencia rettgeri, read-out: MIC
Protocol: as §1

S. aureus Smith = assay: MIC, S. aureus Smith; settings: Staphylococcus aureus, read-out: MIC
Protocol: as §1

S. paratyphi B = assay: MIC, S. paratyphi B; settings: Salmonella enterica, PARATYPHI
Protocol: as §1

S. aureus TASAKI = assay: MIC, S. aureus TASAKI; settings: Staphylococcus aureus
Protocol: as §1

P. vulgaris ATCC6380 = assay: MIC, P. vulgaris ATCC6380; settings: Proteus vulgaris, read-out: MIC
Protocol: as §1

S. sonnei SH72-415 = assay: MIC, S. sonnei SH72-415; settings: Shigella sonnei, SH72415, read-out: MIC
Protocol: as §1

S. marcescens IFO12648 = assay: MIC, S. marcescens IFO12648; settings: Serratia marcescens, read-out: MIC
Protocol: as §1

P. cepacia ATCC25416 = assay: MIC, P. cepacia ATCC25416; settings: Burkholderia cepacia, read-out: MIC
Protocol: as §1

P. mirabilis IFO3849 = assay: MIC, P. mirabilis IFO3849; settings: Proteus mirabilis, read-out: MIC
Protocol: as §1

S. anatum 677-69 = assay: MIC, S. anatum 677-69; settings: Salmonella enterica, 67769, read-out: MIC
Protocol: as §1

B. subtilis ATCC6633 = assay: MIC, B. subtilis ATCC6633; settings: Bacillus subtilis; B. subtilis ATCC6633; read-out: MIC
Protocol: as §1

P. aeruginosa ATCC9721 = assay: MIC, P. aeruginosa ATCC9721; settings: Pseudomonas aeruginosa; P. aeruginosa ATCC9721; read-out: MIC
Protocol: as §1

[1] = tested on: S. flexneri 2a CDC 4807-62; assay: MIC, S. flexneri 2a CDC 4807-62; settings: Shigella flexneri, read-out: MIC
Protocol: as §1

S. flexneri Y NCTC 9730 = assay: MIC, S. flexneri Y NCTC 9730; settings: Shigella flexneri, NCTC9730, read-out: MIC
Protocol: as §1

C. freundii IFO12681 = assay: MIC, C. freundii IFO12681; settings: Citrobacter freundii, read-out: MIC
Protocol: as §1

S. typhimurium IFO 12529 = assay: MIC, S. typhimurium IFO 12529; settings: Salmonella enterica, read-out: MIC
Protocol: as §1

P. fluorescens ATCC13525 = assay: MIC, P. fluorescens ATCC13525; settings: Pseudomonas fluorescens, read-out: MIC
Protocol: as §1

[2] = S. aureus TASAKI, standard method of Japanese Chemotherapy Association, read-out: MIC

Structure (SMILES)	MIC (E. cloacae ATCC13047) [µg/mL]	MIC (E. coli ATCC25922) [µg/mL]	MIC (P. maltophilia ATCC13637) [µg/mL]	MIC (S. newport 563) [µg/mL]	MIC (S. boyadii CDC 2064-59) [µg/mL]	MIC (P. putida ATCC12633) [µg/mL]	MIC (S. dysenteriae 4379-60) [µg/mL]	MIC (K. pneumoniae ATCC27736) [µg/mL]	MIC (P. vulgaris ATCC6398) [µg/mL]	MIC (S. aureus ATCC25923) [µg/mL]	MIC (S. paratyphi A 144-12-93) [µg/mL]	MIC (S. paratyphi C 33-76) [µg/mL]	MIC (S. epidermidis ATCC14990) [µg/mL]	MIC (S. faecalis IFO3826) [µg/mL]	MIC (S. aureus 209P JC-1) [µg/mL]	MIC (E. coli NIHJ JC-2) [µg/mL]	MIC (S. typhimurium ATCC13311) [µg/mL]	MIC (P. rettgeri ATCC14505) [µg/mL]	MIC (S. aureus Smith) [µg/mL]	MIC (S. paratyphi B) [µg/mL]	further results
CN(C)CCn1nnnc1SCC1=C(C(=O)O)N2C(=O)[C@@H](NC(=O)Cc3csc(N)n3)[C@H]2SC1 [CTM, cephothiam]	50 (≈ 95.1 µM)	0.2 (≈ 0.38 µM)	> 100	0.39 (≈ 0.742 µM)	0.39 (≈ 0.742 µM)	> 100	0.05 (≈ 0.0951 µM)	0.1 (≈ 0.19 µM)	> 100	0.39 (≈ 0.742 µM)	0.39 (≈ 0.742 µM)	0.05 (≈ 0.0951 µM)	0.39 (≈ 0.742 µM)	> 100	0.2 (≈ 0.38 µM)	0.2 (≈ 0.38 µM)	0.1 (≈ 0.19 µM)	3.13 (≈ 5.95 µM)	0.39 (≈ 0.742 µM)	0.2 (≈ 0.38 µM)	MIC (S. typhi 1099-77; TYPHI): 0.1 µg/mL (≈ 0.19 µM); MIC (S. aureus TASAKI; [2]): 0.39 µg/mL (≈ 0.742 µM); MIC (P. vulgaris ATCC6380): > 100 µg/mL; MIC (S. sonnei SH72-415): 0.2 µg/mL (≈ 0.38 µM); MIC (S. marcescens IFO12648): 6.25 µg/mL (≈ 11.9 µM); MIC (P. cepacia ATCC25416): 0.39 µg/mL (≈ 0.742 µM); MIC (P. mirabilis IFO3849): 0.78 µg/mL (≈ 1.48 µM); MIC (S. anatum 677-69): 0.2 µg/mL (≈ 0.38 µM); MIC (B. subtilis ATCC6633): 0.39 µg/mL (≈ 0.742 µM); MIC (P. aeruginosa ATCC9721): > 100 µg/mL; MIC [1]: 0.1 µg/mL (≈ 0.19 µM); MIC (S. flexneri Y NCTC 9730): 0.78 µg/mL (≈ 1.48 µM); MIC (C. freundii IFO12681): 3.13 µg/mL (≈ 5.95 µM); MIC (S. typhimurium IFO 12529): 0.2 µg/mL (≈ 0.38 µM)
CO/N=C(\C(=O)N[C@@H]1C(=O)N2C(C(=O)O)=C(COC(C)=O)CS[C@H]12)c1csc(N)n1 [CTX, cephotaxim]	3.13 (≈ 6.87 µM)	0.1 (≈ 0.22 µM)	50 (≈ 110 µM)	0.1 (≈ 0.22 µM)	0.39 (≈ 0.856 µM)	50 (≈ 110 µM)	0.012 (≈ 0.0263 µM)	0.1 (≈ 0.22 µM)	≤ 0.006	0.78 (≈ 1.71 µM)	0.2 (≈ 0.439 µM)	≤ 0.006	0.78 (≈ 1.71 µM)	> 100	0.39 (≈ 0.856 µM)	0.1 (≈ 0.22 µM)	0.05 (≈ 0.11 µM)	0.1 (≈ 0.22 µM)	3.13 (≈ 6.87 µM)	0.1 (≈ 0.22 µM)	MIC (S. typhi 1099-77; S. typhi 1099-77, read-out: MIC): 0.1 µg/mL (≈ 0.22 µM); MIC (S. aureus TASAKI): 1.56 µg/mL (≈ 3.43 µM); MIC (P. vulgaris ATCC6380): 0.05 µg/mL (≈ 0.11 µM); MIC (S. sonnei SH72-415): 0.05 µg/mL (≈ 0.11 µM); MIC (P. fluorescens ATCC13525): 25 µg/mL (≈ 54.9 µM); MIC (S. marcescens IFO12648): 0.2 µg/mL (≈ 0.439 µM); MIC (P. cepacia ATCC25416): 0.78 µg/mL (≈ 1.71 µM); MIC (P. mirabilis IFO3849): 0.05 µg/mL (≈ 0.11 µM); MIC (S. anatum 677-69): 0.1 µg/mL (≈ 0.22 µM); MIC (B. subtilis ATCC6633): 0.39 µg/mL (≈ 0.856 µM); MIC (P. aeruginosa ATCC9721): 3.13 µg/mL (≈ 6.87 µM); MIC [1]: 0.025 µg/mL (≈ 0.0549 µM); MIC (S. flexneri Y NCTC 9730): 0.05 µg/mL (≈ 0.11 µM); MIC (C. freundii IFO12681): 0.1 µg/mL (≈ 0.22 µM); MIC (S. typhimurium IFO 12529): 0.2 µg/mL (≈ 0.439 µM)
Cn1nnnc1SCC1=C(C(=O)O)N2C(=O)C(NC(=O)C(=NOCC(=O)NN=Cc3ccc(O)c(O)c3)c3csc(N)n3)C2SC1 (centres unmarked) [Example 2, 7-{2-[2-amino-1,3-thiazol-4-yl]-2-[3-(3,4-dihydroxybenzylidene)carbazoyl]methoxyiminoacetamido}-3-[(1-methyl-1,2,3,4-tetrazol-5-yl)thiomethyl]-3-cephem-4-carboxylic acid.hydrochloride]	3.13	0.2	1.56	0.05	0.78	1.56	0.025	0.025	0.05	0.78	0.05	0.012	0.78	> 100	0.78	0.39	0.05	0.39	3.13	0.025	MIC (S. typhi 1099-77; TYPHI): ≤ 0.006 µg/mL; MIC (S. aureus TASAKI; [2]): 1.56 µg/mL; MIC (P. vulgaris ATCC6380): 0.2 µg/mL; MIC (S. sonnei SH72-415): 0.05 µg/mL; MIC (P. fluorescens ATCC13525): 12.5 µg/mL; MIC (S. marcescens IFO12648): 0.39 µg/mL; MIC (P. cepacia ATCC25416): 0.78 µg/mL; MIC (P. mirabilis IFO3849): 0.2 µg/mL; MIC (S. anatum 677-69): 0.05 µg/mL; MIC (B. subtilis ATCC6633): 0.39 µg/mL; MIC (P. aeruginosa ATCC9721): 0.2 µg/mL; MIC [1]: 0.1 µg/mL; MIC (S. flexneri Y NCTC 9730): 0.78 µg/mL; MIC (C. freundii IFO12681): 0.39 µg/mL; MIC (S. typhimurium IFO 12529): 0.39 µg/mL

Source: patent US4808711A, “Cephalosporin derivatives” (Sankei Pharmaceutical Co., Ltd., priority 1985, dated 1989)
